Data: patent publication US20120214862A1, “MODULATION OF FACTOR 7 EXPRESSION” (ISIS Pharmaceuticals, Inc., priority 2009, published 2012)
In the oligonucleotide strings, read from the 5' end, every base follows the letter of its sugar. An asterisk marks phosphorothioate; unmarked linkages are phosphodiester. Other units and linkages are bracketed, terminal groups are in braces. A string of capitals states the bases alone. e = 2'-O-(2-methoxyethyl) (MOE); [5mC] = 5-methylcytosine; d = 2'-deoxy (DNA)

Test system: human Factor 7 mRNA
Assay: Antisense inhibition of human Factor 7 mRNA in HepB3 cells, lipofectin, 50 nM, real-time RT-PCR
Type: cell-based
Settings: Example 1; HepB3 cells, lipofectin, 50 nM, ~24 h, relative to untreated control cells
How it was run: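 Percent inhibition of Factor 7 mRNA, relative to untreated control, comes from real-time RT-PCR with RIBOGREEN normalization, using primer probe set RTS 2927 in some runs. RNA was taken roughly 24 h after lipofectin delivery of 50 nM oligonucleotide into HepB3 cells.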

In order of falling “% Inhibition (human Factor 7 mRNA)” value:
1. 407620 (antisense eA*eG*eG*eA*e[5mC]*d[5mC]*dT*dG*d[5mC]*d[5mC]*dA*dT*dG*dG*dA*e[5mC]*eA*e[5mC]*eT*e[5mC]) [compound 407620]  79%
2. 407637 (antisense eG*eT*eA*e[5mC]*eT*dG*dG*dG*dA*dG*dA*d[5mC]*d[5mC]*d[5mC]*dT*eG*eG*eT*eG*eT) [compound 407637]  71%
3. 407924 (antisense eG*eA*eT*eT*eT*dG*dG*dT*dG*d[5mC]*d[5mC]*dA*dG*dG*dA*e[5mC]*eA*eG*eT*eT) [compound 407924]  68%
4. 407631 (antisense eG*eG*eG*e[5mC]*eA*d[5mC]*d[5mC]*dA*d[5mC]*dA*dT*dG*dG*dT*d[5mC]*eA*eG*eT*eG*eA) [compound 407631]  66%
5. 407944 (antisense e[5mC]*e[5mC]*eA*eG*eT*dG*dG*dG*dT*dG*dG*d[5mC]*dA*dG*dG*e[5mC]*eA*e[5mC]*e[5mC]*eA) [compound 407944]  59%
6. 407960 (antisense eG*eT*eG*e[5mC]*e[5mC]*d[5mC]*dA*dG*dG*dA*d[5mC]*dG*dG*d[5mC]*d[5mC]*e[5mC]*eT*eG*e[5mC]*eA) [compound 407960]  53%
7. 407908 (antisense e[5mC]*e[5mC]*e[5mC]*e[5mC]*eA*dG*d[5mC]*d[5mC]*dG*d[5mC]*dT*dG*dA*d[5mC]*d[5mC]*eA*eA*eT*eG*eA) [compound 407908]  47%
8. 407952 (antisense eG*eG*eA*eT*e[5mC]*d[5mC]*dT*dG*dG*dG*dA*dG*d[5mC]*dT*dA*e[5mC]*eA*eG*e[5mC]*e[5mC]) [compound 407952]  41%
9. 407628 (antisense eT*eG*eA*eT*eG*dA*d[5mC]*d[5mC]*dT*dG*d[5mC]*dG*d[5mC]*d[5mC]*dA*e[5mC]*e[5mC]*e[5mC]*eG*e[5mC]) [compound 407628]  38%
10. 407649 (antisense eG*eA*eG*eG*eG*dT*dT*d[5mC]*dA*dT*dT*dT*d[5mC]*dA*dG*eT*eG*eA*eT*eG) [compound 407649]  24%
11. 407955 (antisense eT*eG*eT*eG*eA*dA*dA*dT*dA*dT*d[5mC]*dA*dT*dT*dG*eA*e[5mC]*eA*eA*eG) [compound 407955]  3%

Same assay, conditions: Example 4; HepB3 cells, lipofectin, 50 nM, ~24 h, relative to untreated control

In order of rising “% Inhibition (human Factor 7 mRNA)” value:
1. 422125 (antisense e[5mC]*eT*eG*eA*eG*d[5mC]*dG*d[5mC]*dG*dG*dA*dA*dG*dA*dA*eG*eG*eG*eA*e[5mC]) [compound 422125]  8%
2. 422120 (antisense e[5mC]*eG*e[5mC]*eG*eG*dA*dA*dG*dA*dA*dG*dG*dG*dA*d[5mC]*eG*eG*eA*eA*eG) [compound 422120]  40%
3. 422121 (antisense eG*e[5mC]*eG*e[5mC]*eG*dG*dA*dA*dG*dA*dA*dG*dG*dG*dA*e[5mC]*eG*eG*eA*eA) [compound 422121]  43%
4. 422129 (antisense eG*eT*eT*eA*e[5mC]*dT*dG*dA*dG*d[5mC]*dG*d[5mC]*dG*dG*dA*eA*eG*eA*eA*eG) [compound 422129]  45%

Same assay, conditions: HepB3 cells, lipofectin, 50 nM antisense oligonucleotide, approximately 24 hours, primer probe set RTS 2927, relative to untreated control

In order of rising “% Inhibition of human Factor 7 mRNA levels” value:
1. 416499 (antisense eG*eA*eG*eA*eG*d[5mC]*dT*dG*d[5mC]*dA*d[5mC]*d[5mC]*dT*dG*dG*e[5mC]*e[5mC]*eG*eG*e[5mC]) [compound 416499]  7%
2. 416486 (antisense eA*eT*eT*eG*eA*d[5mC]*dA*dA*dG*dG*dG*d[5mC]*dT*dG*dT*eG*eG*e[5mC]*eA*eG) [compound 416486]  12%
3. 416425 (antisense eA*eA*eG*e[5mC]*eA*dG*dA*dA*dG*dG*d[5mC]*dA*dG*dA*dG*eG*eA*eG*e[5mC]*e[5mC]) [compound 416425]  13%
4. 416481 (antisense eA*eG*eA*eT*eG*dA*dT*dA*dA*dT*dG*dG*dA*dT*dA*eA*eG*eA*eA*e[5mC]) [compound 416481]  15%
5. 416536 (antisense e[5mC]*eG*eG*eG*eA*dA*dG*dG*d[5mC]*d[5mC]*dT*dG*d[5mC]*d[5mC]*d[5mC]*eT*eG*e[5mC]*eA*eG) [compound 416536]  23%
6. 416431 (antisense eA*eG*eG*eG*eA*dG*d[5mC]*d[5mC]*d[5mC]*dG*dG*d[5mC]*d[5mC]*dG*d[5mC]*eA*eG*e[5mC]*eT*e[5mC]) [compound 416431]  25%
7. 416426 (antisense eA*eG*e[5mC]*e[5mC]*e[5mC]*dA*dA*dG*d[5mC]*dA*dG*dA*dA*dG*dG*e[5mC]*eA*eG*eA*eG) [compound 416426]  34%
8. 416511 (antisense eT*eT*eG*e[5mC]*eT*dG*dG*dG*dA*dG*dG*dA*d[5mC]*dG*dA*eG*eG*e[5mC]*e[5mC]*eT) [compound 416511]  35%
9. 416470 (antisense eG*e[5mC]*eT*eT*eT*dT*dG*d[5mC]*dA*dG*d[5mC]*d[5mC]*dA*d[5mC]*dT*e[5mC]*eG*eA*eT*eG) [compound 416470]  39%
10. 416515 (antisense eT*eA*eG*eG*e[5mC]*dA*dT*dG*dA*d[5mC]*d[5mC]*dA*dT*d[5mC]*d[5mC]*eT*e[5mC]*eA*eA*eT) [compound 416515]  39%
11. 416468 (antisense eT*eG*eG*eG*eA*dG*dA*d[5mC]*d[5mC]*d[5mC]*dT*dG*dG*dT*dG*eT*eA*e[5mC]*eA*e[5mC]) [compound 416468]  46%
12. 416437 (antisense eA*eG*eG*e[5mC]*eA*d[5mC]*dA*d[5mC]*dT*dG*dG*dT*d[5mC]*d[5mC]*d[5mC]*e[5mC]*eA*eT*e[5mC]*eA) [compound 416437]  52%

Same assay, conditions: HepB3 cells; gapmers targeted to nucleobases 11830 to 11869 of SEQ ID NO: 1 (Table 9)

In order of rising “% Inhibition of human Factor 7 mRNA levels” value:
1. 422088 (antisense eT*e[5mC]*eA*eG*eG*dG*d[5mC]*dT*dG*dG*dT*dT*dT*dT*dG*eG*eA*eG*eG*eA) [compound 422088]  8%
2. 422234 (antisense eT*eG*dG*dT*d[5mC]*dA*dG*dG*dG*d[5mC]*dT*dG*dG*dT*dT*eT*eT*eG*eG*eA) [compound 422234]  62%

Same assay, conditions: HepB3 cells; gapmers targeted to nucleobases 13760 to 13789 of SEQ ID NO: 1 (Table 10)

In order of rising “% Inhibition of human Factor 7 mRNA levels” value:
1. 422256 (antisense e[5mC]*eA*d[5mC]*d[5mC]*d[5mC]*dG*d[5mC]*d[5mC]*dG*dG*d[5mC]*dT*d[5mC]*dT*dG*e[5mC]*eT*e[5mC]*eA*eT) [compound 422256]  29%
2. 422179 (antisense e[5mC]*eA*e[5mC]*d[5mC]*d[5mC]*dG*d[5mC]*d[5mC]*dG*dG*d[5mC]*dT*d[5mC]*dT*dG*d[5mC]*dT*e[5mC]*eA*eT) [compound 422179]  43%
3. 422260 (antisense eG*e[5mC]*dG*d[5mC]*d[5mC]*dA*d[5mC]*d[5mC]*d[5mC]*dG*d[5mC]*d[5mC]*dG*dG*d[5mC]*eT*e[5mC]*eT*eG*e[5mC]) [compound 422260]  56%
